Assay results published in patent publication US20230086119A1, “ANTICANCER AGENT CONTAINING RHOA PEPTIDE INHIBITOR AS AN ACTIVE INGREDIENT” (EL MED, priority 2020, published 2023).
Where a SMILES comes first, the peptide text is derived from it. [ ]: non-standard residue; d: D form. The star is where a group is joined. ξ: configuration not given here. Biotinyl(4ξ) = O=C1N[C@H]2CSC(CCCCC(=O)*)[C@H]2N1; pY = N[C@@H](Cc1ccc(OP(=O)(O)O)cc1)C(=O)O; ξIle = CC[C@H](C)C(N)C(=O)O

Legend:
[1] = system: HepG2 cells; experiment: MTT proliferation, substituted amino acids of EM3 (FIGS. 39, 40); assay type: cell-based; conditions: DMEM 2.5% FBS 48 hours, FIG. 40 legend
Experimental: FIGS. 39 and 40 show the effect of the substituted amino acids of EM3 on cell proliferation, and the present inventors have designed various peptide inhibitors replaced with other amino acids. The cells were cultured in DMEM containing 2.5% FBS for 48 hours and cell proliferation was measured by MTT assay.

[2] = system: HEK293T cells; experiment: Wnt3A-induced cell proliferation, fluorescence microscopy; assay type: cell-based; conditions: Tat-C3 1 μg/mL, Y27632 10 μM pretreated one hour; Wnt3A 30 ng/mL two days; FIG. 6
Experimental: (§1) All cells tested were cultured in Dulbecco's Modified Eagle Medium (DMEM; Weljin, Gyeongsan) containing 5% fetal bovine serum (FBS; GIBCO, Carlsbad, USA) and 1% penicillin-streptomycin (complete medium) under 5% CO2 at 37° C.

[3] = system: macrophage cell line RAW264.7; experiment: Wnt3A-mediated cell proliferation, fluorescence microscopy; assay type: cell-based, mouse; conditions: Tat-C3 1 μg/mL, Y27632 10 μM pretreated one hour; Wnt3A 30 ng/mL two days; FIG. 7
Experimental: as §1

[4] = system: cyclin D1 and c-Myc; experiment: Wnt3A-induced cyclin D1 and c-Myc expression, Western blotting; assay type: cell-based; conditions: HEK293T; pretreated one hour; Wnt3A 30 ng/mL two hours; FIG. 9
Experimental: HEK293T cells were collected and washed with ice-cold PBS, and dissolved with RIPA buffer (50 mM Tris-HCl (pH7.4), 150 mM NaCl, 1% Nonidet P-40, 0.25% NaN3, 1 mM EDTA, 1 mM PMSF, 1 μg/mL aprotinin, 1 μg/mL leupeptin, 1 μg/mL pepstatin, 1 mM sodium orthovanadate, and 1 mM NaF). The cell lysate was centrifuged at 13,475×g for 20 minutes and the supernatant was analyzed for protein concentration using the BCA Protein Assay Kit (Pierce; Rockford, USA). Proteins of the cell lysate were run on SDS-PAGE and transferred to a PVDF membrane (Millipore; Billerica, USA). Anti-RhoA ( 1/500), anti-actin (Santa Cruz; Dallas, Calif.), anti-GSK-3β( 1/500), anti-phospho (Ser9)-GSK-3β( 1/500) (both Cell Signaling, Beverly, USA), anti-O-catenin ( 1/1000) (Invitrogen, Carlsbad, USA), anti-active β-catenin ( 1/500) (Millipore, Billerica, USA), and anti-Tau ( 1/500) (Biosource; Camarillo, Calif.) antibodies were incubated with PVDF membranes at room temperature for 2 hours, and then each was washed 3 times for 5 minutes. […] The strength of the band was quantified with the ImageJ program of the U.S. National Institutes of Health (Bethesda, USA).

[5] = system: HEK293T cells; experiment: Cell migration by wound healing method in response to Wnt3A; assay type: cell-based; conditions: 1 μM, Wnt3A 30 ng/ml, 48 hours, FIG. 42
[6] = system: LN18 cells; experiment: MTT proliferation with stimulants (FIG. 37); assay type: cell-based; conditions: pre-incubated one hour, stimulant 48 hours
Experimental: (§2) The MTT assay was performed to measure the proliferation of various cancer cell lines, such as HEK293T, LN18 glioma, HepG2 liver cancer, AGS gastric cancer, and A549 lung cancer cells.

[7] = system: HEK293T cells; experiment: MTT proliferation with stimulants (FIG. 37); assay type: cell-based; conditions: pre-incubated one hour, stimulant 48 hours
Experimental: as §2

[8] = system: A549 cells; experiment: MTT proliferation with stimulants (FIG. 37); assay type: cell-based; conditions: pre-incubated one hour, stimulant 48 hours
Experimental: as §2

[9] = system: HepG2 cells; experiment: MTT proliferation with stimulants (FIG. 37); assay type: cell-based; conditions: pre-incubated one hour, stimulant 48 hours
Experimental: as §2

[10] = molecular target: T1, p-Tyr42 RhoA and β-catenin (Homo sapiens, UniProt P35222); experiment: Co-immunoprecipitation of p-Tyr42 RhoA with β-catenin after Wnt3A; assay type: cell-based; conditions: cells pretreated with inhibitor, then Wnt3A; FIGS. 20 and 21
T1 construct: endogenous in cells
T1 sequence (P35222 2-781 limits assumed): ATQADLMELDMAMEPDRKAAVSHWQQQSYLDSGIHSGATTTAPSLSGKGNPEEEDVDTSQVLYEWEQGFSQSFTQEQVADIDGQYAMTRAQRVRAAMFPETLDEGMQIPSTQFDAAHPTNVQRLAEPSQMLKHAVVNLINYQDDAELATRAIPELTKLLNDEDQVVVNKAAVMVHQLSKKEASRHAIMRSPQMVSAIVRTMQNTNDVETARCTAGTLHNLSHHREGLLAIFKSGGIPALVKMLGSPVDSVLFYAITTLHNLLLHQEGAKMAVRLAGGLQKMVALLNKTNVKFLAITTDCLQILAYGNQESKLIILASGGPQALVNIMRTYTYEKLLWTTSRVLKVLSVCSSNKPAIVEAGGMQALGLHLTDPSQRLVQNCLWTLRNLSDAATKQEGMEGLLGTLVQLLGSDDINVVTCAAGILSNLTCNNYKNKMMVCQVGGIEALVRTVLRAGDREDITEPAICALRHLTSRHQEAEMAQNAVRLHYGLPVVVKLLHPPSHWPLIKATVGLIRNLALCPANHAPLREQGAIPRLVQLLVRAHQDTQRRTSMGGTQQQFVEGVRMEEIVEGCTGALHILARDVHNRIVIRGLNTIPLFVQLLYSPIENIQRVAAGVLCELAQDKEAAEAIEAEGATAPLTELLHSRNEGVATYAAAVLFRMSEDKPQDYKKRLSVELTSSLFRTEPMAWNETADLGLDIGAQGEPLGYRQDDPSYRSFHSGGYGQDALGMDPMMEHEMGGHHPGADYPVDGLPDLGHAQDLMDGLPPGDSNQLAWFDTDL
Experimental: HEK293T cells were collected and washed with ice-cold PBS, and dissolved with RIPA buffer (50 mM Tris-HCl (pH7.4), 150 mM NaCl, 1% Nonidet P-40, 0.25% NaN3, 1 mM EDTA, 1 mM PMSF, 1 μg/mL aprotinin, 1 μg/mL leupeptin, 1 μg/mL pepstatin, 1 mM sodium orthovanadate, and 1 mM NaF). The cell lysate was centrifuged at 13,475×g for 20 minutes and the supernatant was analyzed for protein concentration using the BCA Protein Assay Kit (Pierce; Rockford, USA). Proteins of the cell lysate were run on SDS-PAGE and transferred to a PVDF membrane (Millipore; Billerica, USA). Anti-RhoA ( 1/500), anti-actin (Santa Cruz; Dallas, Calif.), anti-GSK-3β( 1/500), anti-phospho (Ser9)-GSK-3β( 1/500) (both Cell Signaling, Beverly, USA), anti-O-catenin ( 1/1000) (Invitrogen, Carlsbad, USA), anti-active β-catenin ( 1/500) (Millipore, Billerica, USA), and anti-Tau ( 1/500) (Biosource; Camarillo, Calif.) antibodies were incubated with PVDF membranes at room temperature for 2 hours, and then each was washed 3 times for 5 minutes. Thereafter, the membrane was incubated for 1 hour with anti-rat IgG antibody or anti-mouse IgG antibody conjugated with horse radish peroxidase (HRP) (both provided by ENZO Life Science; Farmingdale, USA, 1/1000 dilution) and each was washed later three times for 10 minutes. The membrane was incubated with an enhanced chemiluminescence (ECL) reagent (Amersham; Uppsala, Sweden) and then exposed to an X-ray film. The strength of the band was quantified with the ImageJ program of the U.S. National Institutes of Health (Bethesda, USA).
1×10^7 Cells were washed with 1×PBS, and the cell lysate was prepared using cell lysis buffer (20 mM Tris pH 7.4, 120 mM NaCl, and 1% Nonidet P-40) containing 10 μg/mL each of leupeptin and aprotinin and each of NaF, Na3VO4, PMSF and 5 mM MgCl2. The lysate was used for immunoprecipitation by specific antibodies. […]

[11] = system: RAW264.7 cells; experiment: MTT proliferation, FBS-stimulated (FIG. 38); assay type: cell-based, mouse; conditions: pretreated one hour, 2% FBS 48 hours
Experimental: (§3) The MTT assay was performed to measure the proliferation of various cancer cell lines, such as HEK293T, LN18 glioma, HepG2 liver cancer, HT29 colon cancer, 4T1 mouse breast cancer, and RAW264.7 mouse macrophages.

[12] = system: 4T1; experiment: MTT proliferation, FBS-stimulated (FIG. 38); assay type: cell-based, mouse; conditions: pretreated one hour, 2% FBS 48 hours
Experimental: as §3

[13] = system: HT29; experiment: MTT proliferation, FBS-stimulated (FIG. 38); assay type: cell-based; conditions: pretreated one hour, 2% FBS 48 hours
Experimental: as §3

[14] = system: HEK293T; experiment: MTT proliferation, FBS-stimulated (FIG. 38); assay type: cell-based; conditions: pretreated one hour, 2% FBS 48 hours
Experimental: as §3

[15] = system: LN18; experiment: MTT proliferation, FBS-stimulated (FIG. 38); assay type: cell-based; conditions: pretreated one hour, 2% FBS 48 hours
Experimental: as §3

[16] = system: HepG2; experiment: MTT proliferation, FBS-stimulated (FIG. 38); assay type: cell-based; conditions: pretreated one hour, 2% FBS 48 hours
Experimental: as §3

[17] = system: 4T1 cells; experiment: Xenotransplantation experiment with 4T1 cells in BALB/c mice; assay type: in vivo; conditions: EM3 2.5 mM, 10 μL/mouse daily
Experimental: Animal care and experiments were performed by the approval of the Institutional Animal Care and Use Committee (HIRB-2016-52) of Hallym University. Male BALB/c mice (7 weeks old) were injected with 4T1 cells (5×10^5 cells in […] of 1×PBS), and randomly assigned to an EM3 treatment group (7 mice) or the control group (6 mice). The normal group also included two non-tumor mice. Cells were injected subcutaneously and EM3 (2.5 mM, 10 μL/mouse) and 1× PBS (10 μL/mouse) were applied daily. Tumor volume was measured daily and tumor weight and spleen size were measured after sacrificing the mice.

NYLA [HL5]
inhibitory effect on HepG2 cell proliferation, compared with EM3 [1]: less effective than EM3

AYVA [HL1]
inhibitory effect on HepG2 cell proliferation, compared with EM3 [1]: less effective than EM3

NYVS [HL4]
inhibitory effect on HepG2 cell proliferation, compared with EM3 [1]: less effective than EM3

C[C@@H](N)[C@H]1CC[C@H](C(=O)Nc2ccncc2)CC1 [Y27632]
proliferation of HEK293T cells by Wnt3A [2]: abolished | Wnt3A-mediated proliferation in RAW264.7 [3]: inhibited | Wnt3A-increased expression of cyclin D1 and c-Myc [4]: abolished this increased expression

NFVA [HL7]
inhibitory effect on HepG2 cell proliferation, compared with EM3 [1]: less effective than EM3

CC[C@H](C)C(NC(=O)[C@H](CC(=O)O)NC(=O)[C@H](C)NC(=O)[C@@H](NC(=O)[C@H](Cc1ccc(O)cc1)NC(=O)[C@H](CC(N)=O)NC(=O)[C@H](CCC(=O)O)NC(=O)[C@H](Cc1ccccc1)NC(=O)[C@@H](NC(=O)[C@@H](NC(=O)CCCCC1SC[C@@H]2NC(=O)N[C@H]12)[C@@H](C)O)C(C)C)C(C)C)C(=O)N[C@@H](CCC(=O)O)C(=O)O (stereo partly shown) [EM4] ({Biotinyl(4ξ)}-TVFENYVAD[ξIle]E-OH)
migration of HEK293 cells in response to Wnt3A [5]: reducing the migration

CC(C)[C@H](NC(=O)[C@H](Cc1ccc(OP(=O)(O)O)cc1)NC(=O)[C@@H](N)CC(N)=O)C(=O)N[C@@H](C)C(N)=O [PR3] (H-N[pY]VA-NH2)
migration of HEK293 cells in response to Wnt3A [5]: reducing the migration | proliferation of LN18 cells by EGF [6]: significantly inhibited | proliferation of HEK293T cells by LPS [7]: significantly inhibited | proliferation of HEK293T cells by Wnt3A [7]: significantly inhibited | proliferation of HEk293T cells by H2O2 [7]: significantly inhibited | proliferation of A549 cells by PMA [8]: significantly inhibited | proliferation of HepG2 cells by insulin [9]: significantly inhibited | co-immunoprecipitation of p-Tyr42 RhoA and β-catenin [10]: inhibited

NYVA-NH2 [EM3]
migration of HEK293 cells in response to Wnt3A [5]: reducing the migration | co-immunoprecipitation of p-Tyr42 RhoA and β-catenin [10]: inhibited | proliferation of FBS-stimulated RAW264.7 cells [11]: significantly inhibited | proliferation of FBS-stimulated 4T1 cells [12]: significantly inhibited | proliferation of FBS-stimulated HT29 cells [13]: significantly inhibited | proliferation of FBS-stimulated HEK293T cells [14]: significantly inhibited | proliferation of FBS-stimulated LN18 cells [15]: significantly inhibited | proliferation of FBS-stimulated HepG2 cells [16]: significantly inhibited | tumor volume ([17]; 4T1 cells subcutaneous, FIG. 43A): dramatically decreased | tumor weight ([17]; 4T1 cells subcutaneous, after sacrifice, FIG. 43B): dramatically decreased | spleen size ([17]; 4T1 tumor, after sacrifice, FIG. 43C): same size compared to control mice

CC(C)[C@H](NC(=O)[C@H](Cc1ccc(O)cc1)NC(=O)[C@@H](N)CC(N)=O)C(=O)N[C@@H](C)C(N)=O [PR2] (H-NYVA-NH2)
proliferation of LN18 cells by EGF [6]: significantly inhibited | proliferation of HEK293T cells by LPS [7]: significantly inhibited | proliferation of HEK293T cells by Wnt3A [7]: significantly inhibited | proliferation of HEk293T cells by H2O2 [7]: significantly inhibited | proliferation of A549 cells by PMA [8]: significantly inhibited | proliferation of HepG2 cells by insulin [9]: significantly inhibited | co-immunoprecipitation of p-Tyr42 RhoA and β-catenin [10]: inhibited
